Results reported in patent US20090182020A1, “SUBSTITUTED BIS(HETERO)AROMATIC N--ETHYLPROPIOLAMIDES AND USE THEREOF FOR PRODUCTION OF MEDICAMENTS” (GRUNENTHAL GMBH, priority 2005, published 2009).

Biological target: T1, mGluR5 receptor (pig) (Sus scrofa, UniProt I3LUI7)
T1 construct: 450 μg protein from brain homogenate is incubated with 5 nM ^3[H]-MPEP; from tissue; host or cells: pig brain halves without medulla, cerebellum and pons
Test: [3H]-MPEP bond in the mGluR5 receptor bond assay (pig brain homogenate)
Format: binding
Conditions: 5 nM [3H]-MPEP; pig brain homogenate
Protocol: I. Method for Determining the Inhibition of the [^3H]-MPEP Bond in the mGluR5 Receptor Bond Assay
Pig brain homogenate is produced by homogenisation (Polytron PT 3000, Kinematica AG, 10,000 rpm for 90 seconds) of pig brain halves without medulla, cerebellum and pons in buffer pH 8.0 (30 mM Hepes, Sigma, order no. H3375+1 tablet complete to 100 ml, Roche Diagnostics, order no. 1836145) in the ratio 1:20 (brain weight/volume) and differential centrifugation at 900×g and 40,000×g. In each case, 450 μg protein from brain homogenate is incubated with 5 nM ^3[H]-MPEP (Tocris, order no. […]
Thereafter, the batches are filtered with the help of a Brandel Cell Harvester (Brandel, TYP Robotic 9600) on unifilter plates with glass fibre filter mats (Perkin Elmer, order no. 6005177) and subsequently washed with buffer (as above) 3 times with in each case 250 μl per sample. The filter plates are subsequently dried for 60 min at 55° C. 30 μL Ultima Gold™ scintillator (Packard BioScience, order no. 6013159) is subsequently added per well and the samples are measured after 3 hours on the β-counter (Mikrobeta, Perkin Elmer). The unspecific bond is determined by addition of 10 μM MPEP (Tocris, order no. 1212).

T1 sequence (I3LUI7 19-1212): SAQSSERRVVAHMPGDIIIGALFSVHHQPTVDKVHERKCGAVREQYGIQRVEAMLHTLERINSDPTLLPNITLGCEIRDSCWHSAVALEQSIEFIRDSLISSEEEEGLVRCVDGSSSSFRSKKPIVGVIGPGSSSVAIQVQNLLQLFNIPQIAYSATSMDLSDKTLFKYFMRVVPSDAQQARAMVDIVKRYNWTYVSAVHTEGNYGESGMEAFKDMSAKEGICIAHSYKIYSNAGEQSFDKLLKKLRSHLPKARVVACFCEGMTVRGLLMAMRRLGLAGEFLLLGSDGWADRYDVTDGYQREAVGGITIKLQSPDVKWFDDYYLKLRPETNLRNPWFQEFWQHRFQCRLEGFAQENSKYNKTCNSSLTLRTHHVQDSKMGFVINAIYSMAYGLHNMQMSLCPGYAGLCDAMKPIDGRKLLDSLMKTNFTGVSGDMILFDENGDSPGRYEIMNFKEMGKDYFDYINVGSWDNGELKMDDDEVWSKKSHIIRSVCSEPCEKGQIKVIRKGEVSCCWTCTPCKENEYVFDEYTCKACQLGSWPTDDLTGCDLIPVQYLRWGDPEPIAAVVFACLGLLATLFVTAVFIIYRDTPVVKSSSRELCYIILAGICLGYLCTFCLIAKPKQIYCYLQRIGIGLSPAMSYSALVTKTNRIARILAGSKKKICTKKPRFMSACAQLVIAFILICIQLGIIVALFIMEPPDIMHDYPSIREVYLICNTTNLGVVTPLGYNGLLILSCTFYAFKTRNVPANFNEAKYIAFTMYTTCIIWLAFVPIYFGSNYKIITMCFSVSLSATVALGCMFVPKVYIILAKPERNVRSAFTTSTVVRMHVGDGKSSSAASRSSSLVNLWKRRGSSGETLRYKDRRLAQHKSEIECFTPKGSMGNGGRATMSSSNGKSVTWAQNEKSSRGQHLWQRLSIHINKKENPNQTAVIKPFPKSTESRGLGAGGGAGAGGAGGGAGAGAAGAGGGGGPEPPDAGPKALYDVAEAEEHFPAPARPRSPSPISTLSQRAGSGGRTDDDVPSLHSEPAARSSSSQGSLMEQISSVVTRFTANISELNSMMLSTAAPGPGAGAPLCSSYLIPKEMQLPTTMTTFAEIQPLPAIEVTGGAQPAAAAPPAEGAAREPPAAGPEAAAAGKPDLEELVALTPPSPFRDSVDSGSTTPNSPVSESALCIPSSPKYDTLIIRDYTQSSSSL

SMILES	IC50 [nM]
CC(Cc1ccccc1)N(C)C(=O)C#Cc1cccc(Cl)c1 (centres unmarked) [Example 241, 3-(3-chlorophenyl)-N-methyl-N-(1-phenylpropane-2-yl)propiolamide]	13
O=C(C#Cc1cccc(Cl)c1)NCCc1ccccn1 [Example 3, 3-(3-chlorophenyl)-N-(2-(pyridine-2-yl)ethyl)propiolamide]	34
O=C(C#Cc1cccc(Cl)c1)NCCc1ccccc1 [Example 2, 3-(3-chlorophenyl)-N-phenethylpropiolamide]	44
O=C(C#Cc1cccc(Cl)c1)NCCc1ccncc1 [Example 4, 3-(3-chlorophenyl)-N-(2-(pyridine-4-yl)ethyl)propiolamide]	2000

The next lines start with the values.

IC50 [nM]	SMILES
12	COc1ccccc1CCN(C)C(=O)C#Cc1cccc(Cl)c1 [Example 240, 3-(3-chlorophenyl)-N-(2-methoxyphenethyl)-N-methylpropiolamide]
120	Cc1ncccc1CCN(C)C(=O)C#Cc1cccc(Cl)c1 [Example 249, 3-(3-chlorophenyl)-N-methyl-N-(2-(2-methylpyridine-3-yl)ethyl)propiolamide]
260	Cc1ncccc1CCNC(=O)C#Cc1cccc(Cl)c1 [Example 248, 3-(3-chlorophenyl)-N-(2-(2-methylpyridine-3-yl)ethyl)propiolamide]
29	CN(CCc1ccccn1)C(=O)C#Cc1cccc(Cl)c1 [Example 236, 3-(3-chlorophenyl)-N-methyl-N-(2-(pyridine-2-yl)ethyl)propiolamide]
16	CN(CCc1ccccc1F)C(=O)C#Cc1cccc(Cl)c1 [Example 218, 3-(3-chlorophenyl)-N-(2-fluorophenethyl)-N-methylpropiolamide]
13	Cc1ccccc1CCNC(=O)C#Cc1cccc(Cl)c1 [Example 223, 3-(3-chlorophenyl)-N-(2-methylphenethyl)propiolamide]
280	O=C(C#Cc1cccc(Cl)c1)N(CCc1ccccc1)C1CC1 [Example 239, 3-(3-chlorophenyl)-N-cyclopropyl-N-phenethylpropiolamide]
10	CC(Cc1cccnc1)NC(=O)C#Cc1cccc(Cl)c1 (centres unmarked) [Example 246, 3-(3-chlorophenyl)-N-(1-(pyridine-3-yl)propane-2-yl)propiolamide]
31	CN(CCn1cccc1)C(=O)C#Cc1cccc(Cl)c1 [Example 233, N-(2-(1H-pyrrol-1-yl)ethyl)-3-(3-chlorophenyl)-N-methylpropiolamide]
280	Cc1ccc(CCN(C)C(=O)C#Cc2cccc(Cl)c2)cc1 [Example 228, 3-(3-chlorophenyl)-N-methyl-N-(4-methylphenethyl)propiolamide]
8	Cc1ccccc1CCN(C)C(=O)C#Cc1cccc(Cl)c1 [Example 226, 3-(3-chlorophenyl)-N-methyl-N-(2-methylphenethyl)propiolamide]
11	CN(CCc1cccs1)C(=O)C#Cc1cccc(Cl)c1 [Example 245, 3-(3-chlorophenyl)-N-methyl-N-(2-(thiophene-2-yl)ethyl)propiolamide]
190	O=C(C#Cc1cccc(Cl)c1)NCCn1cccc1 [Example 230, N-(2-(1H-pyrrol-1-yl)ethyl)-3-(3-chlorophenyl)propiolamide]
9	CN(CCc1ccc(F)cc1)C(=O)C#Cc1cccc(Cl)c1 [Example 220, 3-(3-chlorophenyl)-N-(4-fluorophenethyl)-N-methylpropiolamide]
15	Cc1cccc(CCN(C)C(=O)C#Cc2cccc(Cl)c2)c1 [Example 227, 3-(3-chlorophenyl)-N-methyl-N-(3-methylphenethyl)propiolamide]
140	O=C(C#Cc1cccc(Cl)c1)NCCc1ccc(F)cc1 [Example 217, 3-(3-chlorophenyl)-N-(4-fluorophenethyl)propiolamide]
2	CC(Cc1ccccc1)NC(=O)C#Cc1cccc(Cl)c1 (centres unmarked) [Example 242, 3-(3-chlorophenyl)-N-(1-phenylpropane-2-yl)propiolamide]

Same assay, conditions: 10 μM test compound; 5 nM [3H]-MPEP; 450 μg protein pig brain homogenate; 60 min room temperature

SMILES	inhibition at 10 µM [%]
Cc1cccc(C#CC(=O)N(C)CCc2ccccc2)c1 [Example 46, N-methyl-N-phenethyl-3-m-tolylpropiolamide]	97
N#Cc1cccc(C#CC(=O)NCCc2ccccc2)c1 [Example 86, 3-(3-cyanophenyl)-N-phenethylpropiolamide]	86
Cc1cccc(C#CC(=O)NCCc2ccccn2)c1 [Example 18, N-(2-(pyridine-2-yl)ethyl)-3-m-tolyl-propiolamide]	90
Cc1cccc(C#CC(=O)NCCc2cccc(Cl)c2)c1 [Example 69, N-(3-chlorophenethyl)-3-m-tolylpropiolamide]	107
O=C(C#Cc1ccccc1)NCCc1ccccc1 [Example 83, N-phenethyl-3-phenylpropiolamide]	91
Cc1ccc(CCNC(=O)C#Cc2cccs2)cc1 [Example 95, N-(4-methylphenethyl)-3-(thiophene-2-yl)propiolamide]	75
O=C(C#Cc1ccc2[nH]ccc2c1)NCCc1ccccn1 [Example 38, 3-(1H-indol-5-yl)-N-(2-(pyridine-2-yl)ethyl)propiolamide]	36
Cc1cccc(C#CC(=O)NCC(c2ccccc2)c2ccccc2)c1 [Example 71, N-(2,2-diphenylethyl)-3-m-tolylpropiolamide]	57
COc1cccc(C#CC(=O)NCCc2ccc(F)cc2)c1 [Example 61, N-(4-fluorophenethyl)-3-(3-methoxyphenyl)propiolamide]	85
Cc1cc(C#CC(=O)N(C)CCc2ccccc2)ccc1F [Example 41, 3-(4-fluoro-3-methylphenyl)-N-methyl-N-phenethylpropiolamide]	92
Cc1cc(C#CC(=O)NCCc2cccc(Cl)c2)ccc1F [Example 62, N-(3-chlorophenethyl)-3-(4-fluoro-3-methylphenyl)propiolamide]	75
Cc1ccc(CCNC(=O)C#Cc2ccccc2)cc1 [Example 66, N-(4-methylphenethyl)-3-phenylpropiolamide]	64
COc1cccc(C#CC(=O)NCCc2ccccc2)c1 [Example 81, 3-(3-methoxyphenyl)-N-phenethylpropiolamide]	79
CN(CCc1ccccc1)C(=O)C#Cc1cccc(C(F)(F)F)c1 [Example 49, N-methyl-N-phenethyl-3-(3-(trifluoromethyl)phenyl)propiolamide]	108
Cc1cc(C#CC(=O)NCCc2cccs2)ccc1F [Example 56, 3-(4-fluoro-3-methylphenyl)-N-(2-(thiophene-2-yl)ethyl)propiolamide]	54
Cc1ccc(CCNC(=O)C#Cc2cccc(C)c2)cc1 [Example 70, N-(4-methylphenethyl)-3-m-tolylpropiolamide]	89
O=C(C#Cc1ccc(F)cc1)NCCc1ccccc1 [Example 72, 3-(4-fluorophenyl)-N-phenethylpropiolamide]	57

The remaining lines, values ahead:

inhibition at 10 µM [%]	SMILES
97	COc1ccccc1CCNC(=O)C#Cc1cccc(C)c1 [Example 138, N-(2-methoxyphenethyl)-3-m-tolylpropiolamide]
31	COc1ccccc1CCNC(=O)C#Cc1ccc(F)cc1F [Example 193, 3-(2,4-difluorophenyl)-N-(2-methoxyphenethyl)propiolamide]
44	Cc1cc(C#CC(=O)NCCc2ccc(Cl)cc2)ccc1F [Example 135, N-(4-chlorophenethyl)-3-(4-fluoro-3-methylphenyl)propiolamide]
77	COc1ccccc1CCNC(=O)C#Cc1ccc(F)c(C)c1 [Example 134, 3-(4-fluoro-3-methylphenyl)-N-(2-methoxyphenethyl)propiolamide]
57	Cc1ccc(CCNC(=O)C#Cc2ccccc2F)cc1 [Example 149, 3-(2-fluorophenyl)-N-(4-methylphenethyl)propiolamide]
89	N#Cc1cccc(C#CC(=O)NCCc2ccc(F)cc2)c1 [Example 99, 3-(3-cyanophenyl)-N-(4-fluorophenethyl)propiolamide]
88	O=C(C#Cc1cccs1)NCCc1ccc(Cl)c(Cl)c1 [Example 103, N-(3,4-dichlorophenethyl)-3-(thiophene-2-yl)propiolamide]
31	O=C(C#Cc1cccs1)NCC(c1ccccc1)c1ccccc1 [Example 96, N-(2,2-diphenylethyl)-3-(thiophene-2-yl)propiolamide]
91	N#Cc1cccc(C#CC(=O)NCCc2ccc(Cl)cc2)c1 [Example 192, N-(4-chlorophenethyl)-3-(3-cyanophenyl)propiolamide]
105	Cc1cccc(C#CC(=O)NCCc2ccc(Cl)c(Cl)c2)c1 [Example 102, N-(3,4-dichlorophenethyl)-3-m-tolylpropiolamide]
67	O=C(C#Cc1ccccc1F)NCCc1cccs1 [Example 118, 3-(2-fluorophenyl)-N-(2-(thiophene-2-yl)ethyl)propiolamide]
81	COc1ccccc1CCNC(=O)C#Cc1ccccc1F [Example 194, 3-(2-fluorophenyl)-N-(2-methoxyphenethyl)propiolamide]
